Read-outs that look alike come from different tables or passages of the source.
Assays:
Spodoptera litura [1] = assay: Insecticidal effect against Spodoptera litura, leaf spraying (Table 1, I); assay type: in vivo; conditions: read-out: mortality (I, spraying concn.)
Procedure: (§1) Insecticidal effect against Spodoptera litura
(a) The test compounds which comprise:
The above test compounds and control compounds were each processed into wettable powders in accordance with the same formula as in Example 9, followed by dilution with water to prepare emulsions containing 0.4 and 2 ppm, respectively. A spreader, Dyne® (produced by Takeda Chemical Industries, Japan), was added to the emulsions in the proportion of 0.03 volume % against the total volume, respectively, and 20 ml of each of the emulsions so obtained was sprayed by use of a spray gun (spraying pressure of 1 kg/cm^2) on seedlings (14 days after germination) of soybean grown in pots in a spray chamber. 2 hours after spraying, two true leaves were cut away and contained each in their respective ice-cream cup (diameter of 6 cm and depth of 4 cm), into which 10 third-instar larvae of Spodoptera litura was released. After the releasing of larvae, the cups were placed in a room (25° C.), and the number of larvae, […] was checked.
(§2) The mortalities in Test Examples 1 through 3 were calculated by the formula as mentioned below: [formula]

Spodoptera litura [2] = assay: Insecticidal effect against Spodoptera litura, direct spraying on larvae (Table 1, II); assay type: in vivo; conditions: read-out: mortality (II, spraying concn.)
Procedure: as §1
(b) By the same procedure as in Example 7, the test compounds comprising the compounds of the present invention, i.e. Compound Nos. 1, 2, 3 and 4, and control compounds, i.e. Compounds A through G, were each processed into emulsifiable concentrates, which were then diluted with water to produce the aqueous solutions (containing 0.03 % v/v of added spreader, Dyne® (produced by Takeda Chemical Industries, Japan)) containing 10 and 50 ppm of the test compounds, respectively. 20 ml of each of the aqueous solutions was sprayed on 10 third-instar larvae of Spodoptera litura placed in a cage of wire netting. 30 minutes after the spraying, the larvae were taken out of the cage of wire netting and placed in an ice cream cup (diameter of 6 cm and depth of 4 cm) containing soybean leaves, and a number of dead larvae was checked in accordance with the same method as the examination method as stated under (a) except that the larvae were allowed to stand for 48 hours in place of 96 hours.
as §2

Spodoptera litura [3] = assay: Insecticidal effect against Spodoptera litura, soil treatment with granules (Table 1, III); assay type: in vivo; conditions: 96 h, 250 mg of 2 weight % granules in soil of potted soybean, leaves cut 10 days after treatment, third-instar larvae, read-out: mortality (III, treatment amount)
Procedure: as §1
(c) Using the compounds of the present invention, i.e. Compound Nos. 1, 2, 3 and 4, and control compounds, i.e. Compounds A through G, as the test compounds, granules containing 2 weight % of the test compounds were prepared by the same procedure as in Example 13, and 250 and 500 mg of each of the granules were admixed, for the purpose of treatment, into the soil around roots of soybean plants grown in pots (diameter of 9 cm), respectively. The pots so treated were placed in a glass room (28° C.), and 10 days after the treatment, two true leaves were cut away and contained each in ice cream cups (diameter of 6 cm and depth of 4 cm). 10 third-instar larvae of Spodoptera litura were released into each of the ice cream cups, and a number of dead larvae was checked in accordance with the same method as the examination method as stated under (a).
as §2

Chilo suppressalis = assay: Insecticidal effect against Chilo suppressalis, dipped rice seedlings; assay type: in vivo; conditions: 96 h, read-out: Mortality, % (spraying concn.)
Procedure: as §2
Insecticidal effect against Chilo suppressalis
By the same procedure as in Example 9, the test compounds comprising the compounds of the present invention, i.e. Compound Nos. 1, 2, 3 and 4, and control compounds, i.e. Compounds A through G, were processed into wettable powder, respectively, and the aqueous solutions of 0.4 and 2 ppm in concentration were prepared therefrom by the same method as stated under (a) of Test Example 1, whereby 10 rice seedlings (the height of a plant of 2 cm) were dipped in each of the insecticide solutions for 30 minutes. The seedlings thus treated were placed in the respective glass containers (diameter of 2 cm and depth of 5 cm), into which 10 third-instar larvae of Chilo suppressalis were released. The containers were covered with aluminum foil and allowed to stand in a room (25° C.), and a number of dead larvae 4 days after the larvae were released was checked.

Plutella xylostella = assay: Insecticidal effect against Plutella xylostella, sprayed radish seedlings; assay type: in vivo
Procedure: as §2
Insecticidal effect against Plutella xylostella
By the same procedure as in Example 9, the test compounds comprising the compounds of the present invention, i.e., Compound Nos. 1, 2, 3 and 4, and control compounds, i.e. Compounds A through G, were processed into wettable powder, and the aqueous solutions of 50 ppm in concentration were prepared therefrom by the same method as stated under (a) of Test Example 1. 20 ml of each of the aqueous solutions was sprayed on seedlings of radish (25 days after germination) grown in pots in accordance with the same method as described under (a) of Test Example 1. 2 hours after the spraying, two true leaves were cut away and contained in their respective ice cream cups (diameter of 6 cm and depth of 4 cm), into which 10 second-instar larvae of Plutella xylostella were released. After the larvae were released, the above-mentioned cups were placed in a room (25° C.), and a number of dead larvae after 48 hours was checked.

Oral toxicity in mice = conditions: mouse, in vivo
plant body = assay: Penetration into the plant body (general statement); conditions: in words
Toxicity to fishes = assay: Toxicity to fishes; design: species or system Orizias latipes; conditions: in vivo; 72 hours later, orange-red killifish; read-out: TLm (the concentration at which 50% of the test fish dies)
insect = assay: Insecticidal and ovicidal effect (general statement); assay type: in vivo; conditions: in words
[4] = 50 ppm sprayed on radish seedlings, second-instar larvae, 48 hours, read-out: Mortality, %
[5] = 0.4 ppm, wettable powder emulsion sprayed on soybean seedlings, third-instar larvae, 96 hours
[6] = 2 ppm, wettable powder emulsion sprayed on soybean seedlings, third-instar larvae, 96 hours
[7] = 0.4 ppm, rice seedlings dipped 30 minutes, third-instar larvae, 4 days
[8] = 2 ppm, rice seedlings dipped 30 minutes, third-instar larvae, 4 days
[9] = emulsifiable concentrate solution sprayed on third-instar larvae, 48 hours

| SMILES | mortality at 0.4 ppm (Spodoptera litura [1]; in Glycine max, 96 h) [%] | mortality at 10 ppm (Spodoptera litura [2]; 48 h) [%] | mortality at 250 mg (Spodoptera litura [3]) [%] | mortality at 0.4 ppm (Chilo suppressalis) [%] | mortality at 2 ppm (Chilo suppressalis) [%] | mortality at 50 ppm (Plutella xylostella; [4]) [%] | LD50 (Oral toxicity in mice) [mg/kg] | action to penetrate into the plant body (plant body) | mortality at 0.4 ppm (Spodoptera litura [1]; [5]) [%] | mortality at 2 ppm (Spodoptera litura [1]; [6]) [%] | mortality at 0.4 ppm (Chilo suppressalis; [7]) [%] | mortality at 2 ppm (Chilo suppressalis; [8]) [%] | LC50 at 72 h (Toxicity to fishes) [µg/mL] | insecticidal and ovicidal effect (insect) | mortality at 50 ppm (Spodoptera litura [2]; [9]) [%] | mortality at 10 ppm (Spodoptera litura [2]; 10 ppm, emulsifiable concentrate solution sprayed on third-instar larvae, 48 hours) [%] | mortality at 50 ppm (Plutella xylostella; 48 h) [%] | mortality at 2 ppm (Spodoptera litura [1]; in Glycine max, 96 h) [%] |
| --- | --- | --- | --- | --- | --- | --- | --- | --- | --- | --- | --- | --- | --- | --- | --- | --- | --- | --- |
| O=C(NC(=O)c1c(F)cccc1F)Nc1ccc(F)cc1F [Compound No. 3, N-2,6-difluorobenzoyl-N'-2,4-difluorophenyl urea] | 80 | 35 | 100 | 40 | 80 | 95 | ≥ 3000 | excellent action to penetrate into the plant body | – | – | – | – | – | – | – | – | – | – |
| O=C(NC(=O)c1c(Cl)cccc1Cl)Nc1ccc(Cl)c(F)c1 [Compound C, N-2,6-dichlorobenzoyl-N'-3-fluoro-4-chlorophenylurea] | – | – | 0 | – | – | 10 | – | – | 20 | 30 | 0 | 0 | – | – | – | – | – | – |
| O=C(NC(=O)c1c(F)cccc1F)Nc1ccc(Cl)c(Cl)c1 [Compound E, N-2,6-difluorobenzoyl-N'-3,4-dichlorophenylurea] | – | – | 0 | – | – | 40 | – | – | 20 | 40 | 0 | 0 | – | – | – | – | – | – |
| O=C(NC(=O)c1c(F)cccc1F)Nc1ccc(Cl)cc1F [Compound No. 1, N-2,6-Difluorobenzoyl-N'-2-fluoro-4-chlorophenylurea] | – | 60 | – | 80 | 100 | 100 | ≥ 3000 | – | – | – | – | – | ≥ 10 | excellent insecticidal and ovicidal effect | – | – | – | – |
| O=C(NC(=O)c1c(F)cccc1F)Nc1ccc(I)c(F)c1 [Compound G, N-2,6-difluorobenzoyl-N'-3-fluoro-4-iodophenylurea] | – | – | 0 | – | – | 50 | – | – | 5 | 35 | 10 | 55 | – | – | 5 | – | – | – |
| O=C(NC(=O)c1c(F)cccc1F)Nc1ccc(Cl)cc1 [Compound A, N-2,6-difluorobenzoyl-N'-4-chlorophenylurea] | – | – | – | – | – | – | – | – | 20 | 30 | 5 | 40 | – | – | 10 | 0 | 20 | – |
| O=C(NC(=O)c1c(Cl)cccc1Cl)Nc1ccc(F)cc1F [Compound F, N-2,6-dichlorobenzoyl-N'-2,4-difluorophenylurea] | – | – | 0 | – | – | 20 | – | – | – | – | 0 | 0 | – | – | – | – | – | – |
| O=C(NC(=O)c1c(F)cccc1F)Nc1ccc(Br)cc1F [Compound No. 2, N-2,6-difluorobenzoyl-N'-2-fluoro-4-bromophenylurea] | – | 60 | 80 | 70 | 100 | 100 | ≥ 3000 | – | – | – | – | – | – | excellent insecticidal and ovicidal effect | – | – | – | – |
| O=C(NC(=O)c1c(F)cccc1F)Nc1ccc(Cl)c(F)c1 [Compound D, N-2,6-difluorobenzoyl-N'-3-fluoro-4-chlorophenylurea] | – | – | 0 | – | – | 45 | – | – | 25 | 45 | 10 | 45 | – | – | 30 | – | – | – |
| O=C(NC(=O)c1c(Cl)cccc1Cl)Nc1ccc(Cl)cc1Cl [Compound B, N-2,6-dichlorobenzoyl-N'-2,4-dichlorophenylurea] | – | – | 0 | – | – | 0 | – | – | – | – | 0 | 0 | – | – | – | – | – | – |
| O=C(NC(=O)c1c(F)cccc1F)Nc1ccc(I)cc1F [Compound No. 4, N-2,6-difluorobenzoyl-N'-2-fluoro-4-iodophenylurea] | 100 | 65 | 55 | 75 | 100 | 100 | ≥ 3000 | – | – | – | – | – | – | – | – | – | – | 100 |
